Publication PMC13120037 (2026)

What was measured:
[1] = tested on: Seq78-7 (DNA, aptamer) GGGAGCTCAGAATAAACGCTCAAGTTCCTCTATTCTAGTTATGCGCTACGTACGCTAGTTCGACATGAGGCCCGGATC; test: magnetic-bead strand release, supernatant absorbance (Nanodrop); details: 25 °C, 60 min; 20 μM α-amanitin; capture strand Capture-am-biotin displaced; Langmuir single-point calculation, not fitted
[2] = tested on: Seq78-2 (DNA, aptamer) GGGAGCTCAGAATAAACGCTCAAGCACGCGTCGTCTTCCTGCGCTTCTCCCCGCATCATTCGACATGAGGCCCGGATC; test: as above; details: 25 °C, 60 min; 20 μM α-amanitin; capture strand Capture-am-biotin displaced; Langmuir single-point calculation, not fitted
[3] = tested on: Seq78-9 (DNA, aptamer) GGGAGCTCAGAATAAACGCTCAACTTTTCTGGTTACTCTCGTTTGTTTGATGTTACTTTTCGACATGAGGCCCGGATC; test: as above; details: 25 °C, 60 min; 20 μM α-amanitin; capture strand Capture-am-biotin displaced; Langmuir single-point calculation, not fitted
[4] = tested on: Seq78-2 (DNA, aptamer) GGGAGCTCAGAATAAACGCTCAAGCACGCGTCGTCTTCCTGCGCTTCTCCCCGCATCATTCGACATGAGGCCCGGATC; test: AuNP colorimetric assay (A520); details: Na+ (NaCl 40 mM final, added after binding); room temperature, 30 min; 1 μg/mL α-amanitin, aptamer 0-1600 nM; 35 or 78 nt form not stated
[5] = tested on: Seq78-4 (DNA, aptamer) GGGAGCTCAGAATAAACGCTCAATTTTCGCTGGCTAGTCAGTTTTCTCGTCGTGTGATTTCGACATGAGGCCCGGATC; test: magnetic-bead strand release, supernatant absorbance (Nanodrop); details: 25 °C, 60 min; 20 μM α-amanitin; capture strand Capture-am-biotin displaced; Langmuir single-point calculation, not fitted
[6] = tested on: Seq78-9 (DNA, aptamer) GGGAGCTCAGAATAAACGCTCAACTTTTCTGGTTACTCTCGTTTGTTTGATGTTACTTTTCGACATGAGGCCCGGATC; test: AuNP colorimetric assay (A520); details: Na+ (NaCl 40 mM final, added after binding); room temperature, 30 min; 1 μg/mL α-amanitin, aptamer 0-1600 nM; 35 or 78 nt form not stated
[7] = tested on: Seq78-7 (DNA, aptamer) GGGAGCTCAGAATAAACGCTCAAGTTCCTCTATTCTAGTTATGCGCTACGTACGCTAGTTCGACATGAGGCCCGGATC; test: AuNP colorimetric assay (A520); details: Na+ (NaCl 40 mM final, added after binding); room temperature, 30 min; 1 μg/mL α-amanitin, aptamer 0-1600 nM; 35 or 78 nt form not stated
[8] = tested on: Seq78-4 (DNA, aptamer) GGGAGCTCAGAATAAACGCTCAATTTTCGCTGGCTAGTCAGTTTTCTCGTCGTGTGATTTCGACATGAGGCCCGGATC; test: AuNP colorimetric assay (A520); details: Na+ (NaCl 40 mM final, added after binding); room temperature, 30 min; 1 μg/mL α-amanitin, aptamer 0-1600 nM; 35 or 78 nt form not stated

With `CC[C@H](C)[C@@H]1NC(=O)CNC(=O)[C@@H]2Cc3c([nH]c4cc(O)ccc34)[S@](=O)C[C@H](NC(=O)CNC1=O)C(=O)N[C@@H](CC(N)=O)C(=O)N1C[C@H](O)C[C@H]1C(=O)N[C@@H]([C@@H](C)[C@@H](O)CO)C(=O)N2` the Kd [1] was 256 ± 5 nM, the Kd [2] was 850 ± 45 nM and the Kd [3] was 910 ± 31 nM. It also gave a Kd [4] of 820 ± 5 nM, a Kd [5] of 57.80 ± 1.001 nM and a Kd [6] of 881 ± 6 nM. The Kd [7] was 216 ± 3 nM and the Kd [8] was 60 ± 3 nM.
